Laboratory results as given in US4647564A, “Inotropic agents” (Eli Lilly and Company, priority 1986, dated 1987).

How the values were obtained:
[1] = tested on: Ventricular contractility in the conscious dog; experiment: Ventricular contractility in the conscious dog (oral); type: in vivo; settings: Canis lupus familiaris, oral (gelatin capsules), by interpolation, read-out: ED50 (dose required to produce a peak increase in contractility of 50%)
Text: (§1) The compounds of Formula I are particularly useful as inotropic agents due to their potency, long action of effect, and oral efficacy and are therefore useful in the treatment and prevention of heart failure. For example, the compounds of this invention were examined as to their pharmacodynamic effects on the following test systems. For comparison, 1,3-dihydro-5-(1,4,5,6-tetrahydro-6-oxo-3-pyridazinyl)-2H-indol-2-one (Compound A) and 4,4-dimethyl-1,2,3,4-tetrahydro-6-(1,4,5,6-tetrahydro-6-oxo-3-pyridazinyl)quinolin-2-one (Compound B) as taught in U.S. Pat. No. 4,258,185 (although named somewhat differently), were also tested.
Mongrel dogs of either sex weighing 15-36 kg were chronically instrumented to monitor peak systolic pressure, heart rate, left ventricular pressure and its first derivative, LVdP/dt at 60 mm of mercury. Under halothane-nitrous oxide anesthesia, a precalibrated Konigsberg P22 Pressure Transducer was implanted into the left ventricle through a stab wound at the apex. Following recovery from surgery, a minimum of two weeks was allowed to train the dogs to lie quietly for four-hour periods. This conditioning was necessary to obtain stable, reproducible results from day to day. Dogs were fasted eighteen hours before an experiment. Gross behavioral observations of animals were made throughout each study. Compounds or placebo (lactose) were administered in gelatin capsules. The maximum effects on contractility at various dose levels were determined and plotted and the dose required to produce a 50-percent increase in contractility (ED50) was determined by interpolation.

Cat papillary muscles = experiment: Positive inotropic activity in isolated cat papillary muscles; type: cell-based; settings: Felis catus, control = 100 percent, average of 2 to 8 muscles, read-out: Contractility of papillary muscle, peak response; for activity at 100 µM: 10^-4 M; for activity at 10 µM: 10^-5 M
Text: as §1
Cats of either sex were anesthetized with Metofane (1,1-difluoro-2,2-dichloroethyl methyl ether, Pittman-Moore). Their hearts were immediately removed and the papillary muscles dissected and suspended in individual organ baths. A platinum hook secured one end of the muscle to an electrode mounted in the bottom of the bath, and a silk thread attached the tendon to a Statham isometric transducer. The baths contained Krebs-Henseleit solution (36° C., bubbled with 95 percent oxygen--5 percent carbon dioxide) of the following millimolar composition: NaCl, 118; KCl, 4.5; CaCl2, 2.5; KH2 PO4, 1.1; MgSO4, 1.2; NaHCO3, 25; and glucose, 11.
A base-line tension of 1.5 g was applied to each muscle. Square-wave pulses (5.0 msec. in duration, three times threshold voltage) delivered through the hook electrode and a second electrode positioned near the top of the muscle evoked 12 contractions/minute, which were recorded on a Grass polygraph. After the muscles had equilibrated for 60 minutes, the recorder gain was adjusted so that the pen deflected 10 mm. The test compound was introduced in a solution of normal saline in an amount to bring the final concentration of the compound to 10^-5 or 10^-4 molar. Increases in contractility were tabulated as millimeters of pen deflection in excess of the baseline value. In each experiment the maximum contractility was measured. Test results are summarized in Table I and are expressed as percent of control (control=100 percent). Values are the average of results from 2 to 8 muscles.

[2] = tested on: Ventricular contractility in the anesthetized dog; experiment: Ventricular contractility in the anesthetized dog (i.v.); type: in vivo; settings: Canis lupus familiaris, iv, i.v. bolus, by interpolation, read-out: ED50 (dose required to produce a peak increase in contractility of 50%)
Text: as §1
Mongrel dogs of either sex ranging in weight for 7 to 14 kg were used. Anesthesia was induced with sodium pentobarbital (30 mg/kg, i.v.) and maintained with supplemental doses as required. A positive-pressure pump was used to ventilate the dogs through an endotracheal tube (18 strokes/minute, 20 ml/kg stroke^-1), and a heating pad kept the body temperature at 37°-38° C.
Femoral arterial blood pressure was measured through a polyethylene catheter filled with heparin solution (16 units/ml) and connected to a Statham pressure transducer. A strain-gauge arch sutured to the right ventricle of the heart measured cardiac contractility. Tension on the gauge was adjusted to 50 g and the gain of the recorder (Beckman dynograph) was set so that 50 g caused a 10-mm pen deflection. Cardiac contractile tension was measured as millimeters of pen deflection or grams of tension. The test compounds were administered as an i.v. bolus (2-5 ml) in a normal saline vehicle following a 30-45 minute equilibrium period. […] The maximum effects on contractility at various dose levels were determined and plotted and the dose required to produce a 50 % increase in contractility (ED50) was determined by interpolation.

Row | Structure (SMILES) | ED50 [1] [mg/kg] | activity at 100 µM (Cat papillary muscles) [%] | activity at 10 µM (Cat papillary muscles) [%] | ED50 [2] [µg/kg]
1 | CC1(C)C(=O)Nc2ccc(C3=NNC(=O)CC3)cc21 [Example 1, 1,3-Dihydro-3,3-dimethyl-5-(1,4,5,6-tetrahydro-6-oxo-3-pyridazinyl)-2H-indol-2-one] | 0.025 | 208 | 202 | 5
2 | CC1CC(=O)NN=C1c1ccc2c(c1)C(C)(C)C(=O)N2C (stereo not shown) [Example 3, 1,3-Dihydro-1,3,3-trimethyl-5-(1,4,5,6-tetrahydro-4-methyl-6-oxo-3-pyridazinyl)-2H-indol-2-one] |  |  |  | 5
3 | CC1CC(=O)NN=C1c1ccc2c(c1)C(C)(C)C(=O)N2 (stereo not shown) [Example 7, 1,3-Dihydro-3,3-dimethyl-5-(1,4,5,6-tetrahydro-4-methyl-6-oxo-3-pyridazinyl)-2H-indol-2-one] | 0.05 |  |  | 2.5
4 | Cc1cc2c(cc1C1=NNC(=O)CC1)C(C)(C)C(=O)N2 [Example 5, 1,3-Dihydro-3,3,6-trimethyl-5-(1,4,5,6-tetrahydro-6-oxo-3-pyridazinyl)-2H-indol-2-one] |  |  |  | 20
5 | Cc1cc(C2=NNC(=O)CC2)cc2c1NC(=O)C2(C)C [Example 4, 1,3-Dihydro-3,3,7-trimethyl-5-(1,4,5,6-tetrahydro-6-oxo-3-pyridazinyl)-2H-indol-2-one] |  |  |  | 8.5
6 | CC1C(=O)Nc2ccc(C3=NNC(=O)CC3)cc21 (stereo not shown) [Example 8, 1,3-Dihydro-3-methyl-5-(1,4,5,6-tetrahydro-6-oxo-3-pyridazinyl)-2H-indol-2-one] | 0.025 |  |  | 6.3
7 | O=C1CCC(c2ccc3c(c2)CC(=O)N3)=NN1 [Compound A, 1,3-dihydro-5-(1,4,5,6-tetrahydro-6-oxo-3-pyridazinyl)-2H-indol-2-one, reference compound] | 0.5 | 152 | 147 | 10
8 | CC1(C)CC(=O)Nc2ccc(C3=NNC(=O)CC3)cc21 [Compound B, 4,4-dimethyl-1,2,3,4-tetrahydro-6-(1,4,5,6-tetrahydro-6-oxo-3-pyridazinyl)quinolin-2-one, reference compound] | > 0.5 | 169 | 178 | 48
9 | CN1C(=O)C(C)(C)c2cc(C3=NNC(=O)CC3)ccc21 [Example 2, 1,3-Dihydro-1,3,3-trimethyl-5-(1,4,5,6-tetrahydro-6-oxo-3-pyridazinyl)-2H-indol-2-one] | > 0.4 |  |  | 10
10 | CC1CC(c2ccc3c(c2)C(C)(C)C(=O)N3)=NNC1=O (stereo not shown) [Example 6, 1,3-Dihydro-3,3-dimethyl-5-(1,4,5,6-tetrahydro-5-methyl-6-oxo-3-pyridazinyl)-2H-indol-2-one] |  |  |  | 21
